Reference: patent US20160015036A1, “Methods and apparatuses related to pre- and post-dip teat treatment in milking facilities” (Aqua Access LLC, priority 2013, published 2016)

Tests used:
S. aures = assay: Bacteriocidal activity tests of colloidal disinfectant mix at low/intermediate/high FAC, S. aureus; type: cell-based, Staphylococcus aureus; details: 200-300 ppm FAC in viscous post-dip solutions; 30 seconds
Procedure: (§1) FIG. 4 is an illustration of a test for bacteriocidal activity.
(§2) Colloid-based disinfectant mixing procedures were established as follows. Step 1—Mix 2 g GA into 90 mL of water, leave with constant slow mixing for 1 hour. Step 2—Generate chlorine-based oxidant by salt brine electrolysis. Measure FAC concentration by the Hach DPD technique. Step 3—Dilute free chlorine solution from fresh electrolyzed brine solution. Final FAC concentration to be 200 ppm or 300 ppm. Step 4—Add 1 g of pure lanolin (with no additives), fill up the volume to 100 mL. Mix with slow stirring or on a rotary carousel for another hour. If needed, add Brilliant Blue (food-grade) dye during the last mixing. Ready. Store at ambient temperature for up to 48 hours or 72 hours.
(§3) Also, 400 ppm FAC in the disinfectant colloid mix causes 7-log inactivation of E. coli, and 200 ppm FAC is sufficient for 6-log inactivation of S. aures. Higher FAC concentrations can be useful in pre-dip solutions for teat wash. 200-300 ppm FAC, which holds for a long time upon storage, can be sufficient for post-dip solutions. Note that the tests were performed under controlled laboratory conditions. Field test data might support the data, or might indicate that higher FAC concentrations are necessary.

E. coli = assay: Bacteriocidal activity tests of colloidal disinfectant mix at low/intermediate/high FAC, E. coli; type: cell-based, Escherichia coli; details: 200-300 ppm FAC in viscous post-dip solutions; 30 seconds
Procedure: as §1, §2, §3

E. coli cells = details: 100 ppm hypochlorite applied for 1 min.; cited from earlier work

SMILES: OCl [sodium hypochlorite]
- log inactivation of Staphylococcus aureus (S. aures): 6 log
- log inactivation of Escherichia coli (E. coli): 6 log
- E. coli cells killed (E. coli cells): 10^6 cells
